Values of other authors in patent US7858570B2, “Compositions and methods for removing urushiol and treating the resulting skin condition” (priority 2004, dated 2010).

Assays:
[1] = for cloud point: 1% H2O
[2] = tested on: human immuno deficiency virus; conditions: in the test tube
[3] = in vivo

| Molecule | cloud point [1] | also measured |
| --- | --- | --- |
| nonylphenol ethoxylate [2 mol nonylphenol ethoxylate] | less than 25 °C | – |
| nonylphenol ethoxylate [50 mol nonylphenol ethoxylate] | greater than 100 °C | – |
| nonylphenol ethoxylate [8 mol nonylphenol ethoxylate] | less than 25 °C | – |
| nonylphenol ethoxylate [14 mol nonylphenol ethoxylate] | 92-99 °C | – |
| CCCCCCCCCc1ccc(OCCOCCOCCOCCOCCOCCOCCOCCOCCO)cc1 [nonoxynol-9, nonylphenoxypolyethoxyethanol] | – | concentration in a solution that stops HIV from reproducing [2]: 0.05% |
| nonylphenol ethoxylate [30 mol nonylphenol ethoxylate] | greater than 100 °C | – |
| nonylphenol ethoxylate [6 mol nonylphenol ethoxylate] | less than 25 °C | – |
| nonylphenol ethoxylate [4 mol nonylphenol ethoxylate] | less than 25 °C | – |
| nonylphenol ethoxylate [10 mol nonylphenol ethoxylate] | – | pH ([1]; 10% sol.): 6.3 |
| NC(=O)NC1NC(=O)NC1=O (centres unmarked) [allantoin, glyoxyl-diureide] | – | solubility in water (at 25° C.): 0.5%; solubility (in words) (water and alcohol): soluble in water and alcohol |
| urushiol | – | time from skin exposure until rash breaks out [3]: 24 to 72 h |
| nonylphenol ethoxylate [5 mol nonylphenol ethoxylate] | less than 25 °C | – |
| nonylphenol ethoxylate [12 mol nonylphenol ethoxylate] | 78-83 °C | – |
